Legend:
Format in all cases: cell-based, human
[1] = system: RBCs from sickle cell disease patients (SS); assay: Red blood cell deformability by ektacytometry (LORRCA), RBCs from sickle cell patients
Text: (§1) Subjects and blood preparation: 17 sickle cell patients (24.1 +/-12.1 years old) and 6 healthy individuals (26 +/−3.9 years old) were included in this study. 12 sickle cell patients were at steady state at the time of inclusion and 5 had vaso-occlusive crisis the day of inclusion. 14 patients were under hydroxyurea therapy. Blood was drawn into EDTA tubes, centrifuged, and plasma and buffy coat were removed and kept until utilization. RBCs were washed in PBS 1X (Phosphate Buffered Saline, 1X Solution) and resuspended at hematocrit 20% either in PBS 1X or in autologous plasma. Then RBCs were incubated for 1 h at 37° C, with 3 or 5 mM 2-HPBCD or vehicle for control condition (Ctrl). The vehicle for control condition was the PBS IX or plasma respectively, i.e., without addition of the 2-HPBCD.
Red blood cell deformability: RBC deformability was assessed at 37° C, at shear stresses ranging from 0.3 to 30 Pa by laser diffraction analysis (ektacytometry), using a Laser-assisted Optical Rotational Cell Analyzer (LORRCA MaxSis, RR Mechatronics. Hoorn. The Netherlands). 10 μL of RBC suspensions were mixed with 1 ml polyvinylpyrrolidone (PVP: viscosit≈30 cP) and sheared into a Couette system. A laser beam was directed through the samples. The shear stress-induced deformation of RBCs affected the laser beam's diffraction pattern, which was measured by the LORRCA software, and used to calculate an elongation index. A higher elongation index represents greater RBC deformability. The Lineweaver-Burke method was used to calculate the maximum elongation index at infinite shear stress (EImax) and the shear stress required to reach half of this maximum elongation index (SS1/2).
Statistical analysis: effects of treatments on deformability parameters (EImax and SS1/2) and free hemoglobin concentration were analyzed by using a paired t-test or Wilcoxon test when appropriate. Comparisons of RBC deformability between healthy individuals and patients were achieved using Student's t-test. A p value<0.05 was considered as significant. Analyses were performed with Graphpad Prism 9 software.

[2] = system: RBCs from sickle cell disease patients (SS); assay: Free hemoglobin assay (Drabkin's reagent) in supernatants, RBCs from sickle cell patients; details: 1 h incubation
[3] = system: RBCs from healthy individuals (AA); assay: Red blood cell deformability by ektacytometry (LORRCA), RBCs from healthy individuals; details: 5 mM 2-HPBCD, 1 h at 37° C, RBCs from healthy controls (AA) in PBS
Text: as §1, with “The vehicle for control condition was the PBS IX or plasma respectively, i.e., without addition of the 2-HPBCD.” left out
Red blood cell deformability: RBC deformability was assessed at 37° C, at shear stresses ranging from 0.3 to 30 Pa by laser diffraction analysis (ektacytometry), using a Laser-assisted Optical Rotational Cell Analyzer (LORRCA MaxSis, RR Mechatronics. Hoorn. The Netherlands). […] The shear stress-induced deformation of RBCs affected the laser beam's diffraction pattern, which was measured by the LORRCA software, and used to calculate an elongation index. […]
Statistical analysis: effects of treatments on deformability parameters (EImax and SS1/2) and free hemoglobin concentration were analyzed by using a paired t-test or Wilcoxon test when appropriate. […]

[4] = system: RBCs from healthy individuals (AA); assay: Free hemoglobin assay (Drabkin's reagent) in supernatants, RBCs from healthy individuals; details: 5 mM 2-HPBCD, 1 h incubation, RBCs from healthy control individuals (AA) in PBS, FIG. 4

In the case of CC(O)COC[C@H]1O[C@@H]2O[C@H]3[C@H](O)[C@@H](O)[C@@H](O[C@H]4[C@H](O)[C@@H](O)[C@@H](O[C@H]5[C@H](O)[C@@H](O)[C@@H](O[C@H]6[C@H](O)[C@@H](O)[C@@H](O[C@H]7[C@H](O)[C@@H](O)[C@@H](O[C@H]8[C@H](O)[C@@H](O)[C@@H](O[C@H]1[C@H](O)[C@H]2O)O[C@@H]8COCC(C)O)O[C@@H]7COCC(C)O)O[C@@H]6COCC(C)O)O[C@@H]5COCC(C)O)O[C@@H]4COCC(C)O)O[C@@H]3COCC(C)O (stereo partly drawn) [2-HPBCD, 2-hydroxypropyl-β-cyclodextrin], the “effect on deformability of SCD RBCs” value ([1]; 3 mM or 5 mM 2-HPBCD) is reported as “increased deformability”, the “change of sickle cell RBCs EImax vs control” value ([1]; 5 mM 2-HPBCD, 1 h at 37° C, incubated in PBS, p<0.01, FIG. 2A) is reported as “+12.7%” and the “change of sickle cell RBC SS1/2 vs control” value ([1]; 5 mM 2-HPBCD, 1 h at 37° C, incubated in PBS, p<0.5 as printed, FIG. 2B) is reported as −8.1%. For the same compound, the “effect on SS1/2 in sickle cell RBCs” value ([1]; 5 mM 2-HPBCD, 1 h at 37° C, incubated in plasma, FIG. 2D) was “did not significantly change”, the “change of sickle cell RBC EImax vs control” value ([1]; 5 mM 2-HPBCD, 1 h at 37° C, incubated in plasma, p<0.01, FIG. 2C) was “+12.4%” and the “effect on free hemoglobin released by RBCs” value ([2]; 3 mM 2-HPBCD, RBCs from sickle cell disease patients in PBS, p<0.05, FIG. 6A) was “significantly decreased”. For the same compound, the “change of free hemoglobin released by RBCs vs control” value ([2]; 5 mM 2-HPBCD, RBCs from sickle cell anemia patients in PBS, p<0.05, FIG. 5A) was −6.4%, the “change of free hemoglobin released by RBCs vs control, patients with low basal free hemoglobin removed” value ([2]; 5 mM 2-HPBCD, SS RBCs with high basal free hemoglobin content in PBS, p<0.01, FIG. 5B) was −29.9% and the “effect on SS1/2 (printed SSin)” value ([3]; FIG. 1B) was “no significant effect”. For the same compound, the “change of RBC EImax vs control” value ([3]; p<0.05, FIG. 1A) was “+4.4%” and the “effect on free hemoglobin release in the supernatant” value [4] was “no significant effect”.

Reference: US20260041704A1, “COMPOSITIONS AND METHODS FOR TREATING SICKLE CELL DISEASE” (Beren Therapeutics P.B.C., priority 2022, published 2026)
